The source of these data is patent US8592405B2, “Synergistic antimicrobial composition” (Dow Global Technologies LLC, priority 2009, dated 2013).

Holding throughout (format): cell-based
For assay [1], the system named is Calothrix parientina (Cp). Put plainly: Algal efficacy testing, modified ASTM 5589 (12-well, dry paint film). The conditions noted are these: three weeks; for % inhibition: at the Total conc; for Total conc, ppm: total biocide in paint taken as minimum inhibitory concentration. Here is the method: (§1) Samples of white acrylic latex paint free of biocides were prepared in 50 ml aliquots. Each biocide was post added to give the necessary active ingredient concentration in the paint. The total biocides concentrations tested were 750, 1500, 2500 and 5000 ppm. After biocides addition, each sample was hand mixed for a minimum of 30 sec, followed by a 3 min run on the paint shaker (RED DEVIL). Each of the paint samples as well as a control sample (containing no biocide) were used to prepare films on black plastic-vinyl chloride/acetate copolymer panels (LENETA, Mahwah, N.J.) using a 3 mil bird bar applicator. The panels were thoroughly dried for 5 days avoiding direct exposure to sunlight. Square discs (15 mm^2) were cut out from each panel and were used as the substrate for fungal and algal efficacy tests. This sample size allowed for an agar border when the sample disc was placed into the well of the test plate.
(§2) The appropriate media (BOLD'S 3N for Chlorophytes, BG-11 for Cyanobacteria, and PDA for fungi) were used to support microbial growth. The test plates were maintained at room temp (25° C.-26° C.), in a cycled light-dark environment, for 3 weeks for algae. Plates for fungal challenge tests were maintained at 30C for three weeks. At the end of incubation period the samples were scored for percent area covered by visible microbial growth.
(§3) ASTM 5589 is a standard accelerated test method for determining resistance of various coatings (including paints) to algal defacement. To accommodate for high-throughput screening, this method was scaled down from petri plates to 12-well plates. A single coupon was placed with a pair of sterile forceps at the center of the agar plug (on top) with the painted surface facing upwards. Each well was inoculated with 150 μl of organism (1×10^8 cfu/ml) making sure that the whole surface (paint film as well as the agar surrounding it) was evenly covered. The plates were incubated at room temp (25° C.-26° C.) with cyclic exposure to light (OTT-Lite model #OTL4012P, 40 Watt, 26 KLumen) and dark phases, for a period of three weeks. The total area covered was evaluated at the end of each week according to percent area covered in 5% increments. While rating the plates, notations were made for zones of inhibition.
(§4) The SI is calculated based on F. C. Kull et.

Assay [2] has as its system Chlorella sp. + Chlorella kessleri (Cs + Ck). The description is as above. The following applies: three weeks; for % inhibition: at the Total conc; for Total conc, ppm: total biocide in paint taken as minimum inhibitory concentration. Here is the method: as §1, §2, §3, §4
The subject of a further assay is Gleocapsa sp. (Gs). Described as above. The following applies: three weeks; for % inhibition: at the Total conc; for Total conc, ppm: total biocide in paint taken as minimum inhibitory concentration. How it is done:
as §1, §2, §3, §4

For a further assay, the system named is Nostoc commune (Nc). The assay is described as above. The following applies: three weeks; for % inhibition: at the Total conc; for Total conc, ppm: total biocide in paint taken as minimum inhibitory concentration. How it is done: as §1, §2, §3, §4
The subject of a further assay is Oscillatoria sp. (Os). The description is as above. The following applies: three weeks; for % inhibition: at the Total conc; for Total conc, ppm: total biocide in paint taken as minimum inhibitory concentration. Here is the method: as §1, §2, §3, §4
Assay [3] relates to Trentepohlia aurea + Trentepohlia odorata (Ta + To). The assay is described as above. The following applies: three weeks; for % inhibition: at the Total conc; for Total conc, ppm: total biocide in paint taken as minimum inhibitory concentration. Here is the method:
as §1, §2, §3, §4

Another assay concerns Trichoderma viride (Tv). Put plainly: Fungal efficacy testing, modified ASTM 5590 (12-well, dry paint film). The conditions noted are these: three weeks; for % inhibition: at the Total conc; for Total conc, ppm: total biocide in paint taken as minimum inhibitory concentration, 30 C. How it is done:
as §1, §2
(§5) ASTM 5590 is a standard accelerated test method for determining resistance of various coatings (including paints) to fungal defacement. To accommodate for high-throughput screening, this method was scaled down from petri plates to 12-well plates. To set up the test, an agar plug was placed at the bottom of each well of the sterile 12-well plate. A single coupon was placed with a pair of sterile forceps at the center of the agar plug (on top) with the painted surface facing upwards. Each well was inoculated with 150 μl of organism (1×10^6 cfu/ml) making sure that the whole surface (paint film as well as the agar surrounding it) was evenly covered. The plates were incubated at 30° C. in presence of moisture, for a period of three weeks. The total percent area covered was evaluated and recorded at the end of each week after the 2nd week and recorded in increments of 5%.
as §4

The subject of assay [4] is Aa + Ap (Alternaria alternata + Aureobasidium pullulans). Put plainly: Fungal efficacy testing, modified ASTM 5590 (6-well, mixed inoculum, Example 4). The conditions noted are these: four weeks; for Total conc, ppm: Aa + Ap mixed inoculum, NE = no end point at the concentration tested; for % inhibition: Aa + Ap, at the Total conc. Here is the method: [The source words this procedure for another target and reports this target under the same test.] as §4
(§6) A single or blend of biocides was post added into white acrylic latex paint free of biocides to give a maximum total active ingredient/s concentration tested. This paint was then diluted with a biocide free acrylic latex paint at concentrations range of 75 to 12.5% w/w to give desired concentrations for the testing. Depending on the type of biocide blends tested, the total biocides concentrations varies from 200 to 5000 ppm. After biocides addition or dilution each sample was hand mixed for at least a minute until uniformity is achieved. Each of the paint samples as well as a control sample (containing no biocide) were used to prepare films on black plastic-vinyl chloride/acetate copolymer panels (LENETA, Mahwah, N.J.) using a 3 mil bird bar applicator. The panels were thoroughly dried for at least 2 days avoiding direct exposure to sunlight. Square discs (0.5 inch^2, 13 mm^2) were cut out from each panel and were used as the substrate for fungal and algal efficacy tests. This sample size allowed for an agar border when the sample disc was placed into the well of the test plate. Each sample was tested in duplicate
(§7) The appropriate media (BOLD'S 3N for Chlorophytes, BG-11 for Cyanobacteria, and PDA for fungi) were used to support microbial growth. The test plates were maintained at room temp (25° C.-26° C.), in a cycled light-dark environment, for four weeks for algae. Plates for fungal challenge tests were maintained at 30 C for four weeks. At the end of the incubation period the samples were scored for percent area covered by visible microbial growth.
as §5, with “6-well” for “12-well”, “upwards. Fungal inoculums were prepared by mixing equal concentrations (1×10^6 cfu/ml) and equal volumes (depending on number of samples to be tested) of like growing organisms. Cladosporium herbarum was mixed with Aureobasidium pullulans. Aspergillus niger was mixed with Penicillium funiculosum. Alternaria alternata was mixed with Trichoderma viride.” for “upwards.”, “400” for “150”, “organism mixture” for “organism”, “four” for “three”

Assay [5] concerns An + Pf (Aspergillus niger + Penicillium funiculosum). The description is as above. The following applies: four weeks; for Total conc, ppm: An + Pf mixed inoculum, NE = no end point at the concentration tested; for % inhibition: An + Pf, at the Total conc. How it is done: as §4, §6, §7
as §5, with “6-well” for “12-well”, “upwards. Fungal inoculums were prepared by mixing equal concentrations (1×10^6 cfu/ml) and equal volumes (depending on number of samples to be tested) of like growing organisms. Cladosporium herbarum was mixed with Aureobasidium pullulans. Aspergillus niger was mixed with Penicillium funiculosum. Alternaria alternata was mixed with Trichoderma viride.” for “upwards.”, “400” for “150”, “organism mixture” for “organism”, “four” for “three”

Assay [6] relates to Ch + Tv (Cladosporium herbarum + Trichoderma viride). The description is as above. The following applies: four weeks. How it is done:
[The source words this procedure for another target and reports this target under the same test.] as §4, §6, §7
as §5, with “6-well” for “12-well”, “upwards. Fungal inoculums were prepared by mixing equal concentrations (1×10^6 cfu/ml) and equal volumes (depending on number of samples to be tested) of like growing organisms. Cladosporium herbarum was mixed with Aureobasidium pullulans. Aspergillus niger was mixed with Penicillium funiculosum. Alternaria alternata was mixed with Trichoderma viride.” for “upwards.”, “400” for “150”, “organism mixture” for “organism”, “four” for “three”

Where “and” joins values, the source holds several entries; their conditions need not be identical. Identical values can stand only once.

Usually % inhibition stands for the share of the control response that was lost under treatment. For the compound `CCCCCCCCn1sc(Cl)c(Cl)c1=O` [DCOIT, 4,5-dichloro-2-n-octyl-4-isothiazolin-3-one], the “% inhibition” value in assay [1] is recorded as 75%; in [2], 70%; with Gleocapsa sp. (Gs), 77.5%; in the assay with Nostoc commune (Nc), 82.5%; in the assay on Oscillatoria sp. (Os) it was 80%; in assay [3], 72.5%. Further, the “% inhibition” value with Trichoderma viride (Tv) was found to be 60%; in [4] it was 100%. Besides, the “Total conc, ppm” value in [1] is 1500 ppm; in assay [2], 1500 ppm; with Gleocapsa sp. (Gs), 2500 ppm; with Nostoc commune (Nc), 750 ppm; in the assay with Oscillatoria sp. (Os) it was 750 ppm; in assay [3], 1500 ppm. Moreover, the entries for the “Total conc, ppm” value (in the assay on Trichoderma viride (Tv); in assay [4]) were 2500 ppm and 862.5 ppm, respectively.

In the case of `Cc1ccc(S(=O)(=O)C(I)I)cc1` [DIMTS, diiodomethyl-p-tolylsulfone], the “% inhibition” value in assay [1] turned out to be 85%; in assay [2], 70%; in the assay on Gleocapsa sp. (Gs), 80%; in the assay on Nostoc commune (Nc) it was 80%; in the assay on Oscillatoria sp. (Os) it was 80%; in assay [3] it was 62.5%. The “% inhibition” value is 90% in the assay on Trichoderma viride (Tv), 100% in [4] and 100% in [5]. The “Total conc, ppm” value in assay [1] is 1500 ppm; in assay [2], 2500 ppm; in the assay with Gleocapsa sp. (Gs) it was 2500 ppm; in the assay with Nostoc commune (Nc), 5000 ppm; in the assay on Oscillatoria sp. (Os), 1500 ppm; in assay [3], 2500 ppm. Besides, the figures for the “Total conc, ppm” value (in the assay on Trichoderma viride (Tv); in assay [4]; in assay [5]) were 750 ppm, 1250 ppm and 1250 ppm, respectively.

As for `CN(C)C(=O)Nc1cccc(C(F)(F)F)c1` [Fluometuron, 1,1-dimethyl-3-(α,α,α-trifluoro-m-tolyl)urea], the “% inhibition” value in assay [1] is 100% and 95% and 90%; in assay [2] it was 100% and 90.00% and 80%; in the assay on Nostoc commune (Nc), 100% and 90% and 85%; with Oscillatoria sp. (Os) it was 95% and 62.5% and 82.5%; in assay [3], 95% and 82.5% and 62.5%; in [4] it was 0%. The “% inhibition” value was determined as 0% in assay [5] and 0% in assay [6] (Ch + Tv, at the Total conc). Further, the “Total conc, ppm” value in [1] was 750 ppm; with Nostoc commune (Nc), 750 ppm; in assay [3], 750 ppm and 1500 ppm; in [4], 5000 ppm; in assay [5] it was 5000 ppm; in assay [6] (Ch + Tv mixed inoculum, NE = no end point at the concentration tested) it was 5000 ppm.
